Test results as given in publication PMC7489219 (Molecular Brain, 2020).
Structures can show the parent of a compound that is named as a salt.

Test system: T1, primary mouse cortical neurons
T1 construct: primary cortical neurons, DIV 10
Assay: cells
Design: Protection from NMDA-induced (30 uM, 10 min) neuronal death; Hoechst nuclear morphology by automated microscopy
Details: Cortical neurone, 20 h, read-out: % inhibition, inhibition of NMDA-induced cell death (protection score), 30 min pre-treatment
Outline: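 On DIV 10, primary mouse cortical neurons were given compound at 10 μM for 30 min at 37 °C, then 30 μM NMDA for 10 min, washed, and kept 20 h with compound. Dead cells were scored by nuclear morphology, and % protection was derived from survival relative to vehicle + NMDA and untreated controls.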

Compound	inhibition at 10 µM [%]
O=C(O)c1cc(O)c2c(c1)C(=O)c1cccc(O)c1C2=O [Rhein (Monorhein)]	5.39
COc1cc(O)c2c(c1)C(=O)c1cc(C)cc(O)c1C2=O [Rheochrysidin (Physcione)]	18.7
NC(=O)c1ncn([C@@H]2O[C@H](CO)[C@@H](O)[C@H]2O)n1 [Ribavirin (Copegus)]	12.3
Cc1cc2nc3c(=O)[nH]c(=O)nc-3n(C[C@H](O)[C@H](O)[C@H](O)CO)c2cc1C [Riboflavin (Vitamin B2)]	1.7
CO[C@H]1/C=C/O[C@@]2(C)Oc3c(C)c(O)c4c(O)c(c5c(c4c3C2=O)=NC2(CCN(CC(C)C)CC2)N=5)NC(=O)/C(C)=C\C=C\[C@H](C)[C@H](O)[C@@H](C)[C@@H](O)[C@@H](C)[C@H](OC(C)=O)[C@@H]1C [Rifabutin (Mycobutin)]	-2.35
CO[C@H]1/C=C/O[C@@]2(C)Oc3c(C)c(O)c4c(O)c(c(/C=N/N5CCN(C6CCCC6)CC5)c(O)c4c3C2=O)NC(=O)/C(C)=C\C=C\[C@H](C)[C@H](O)[C@@H](C)[C@@H](O)[C@@H](C)[C@H](OC(C)=O)[C@@H]1C [Rifapentine (Priftin)]	9.26
CO[C@H]1/C=C/O[C@@]2(C)Oc3c(C)c(O)c4c(O)c(c5c(nc6cc(C)ccn65)c4c3C2=O)NC(=O)/C(C)=C\C=C\[C@H](C)[C@H](O)[C@@H](C)[C@@H](O)[C@@H](C)[C@H](OC(C)=O)[C@@H]1C [Rifaximin (Xifaxan)]	1.93
Nc1nc2ccc(OC(F)(F)F)cc2s1 [Riluzole (Rilutek)]	40.9
O=P(O)(O)C(O)(Cc1cccnc1)P(=O)(O)O [Risedronate sodium]	4.5
Cc1nc2n(c(=O)c1CCN1CCC(c3noc4cc(F)ccc34)CC1)CCCC2 [Risperidone (Risperdal)]	23.7
CC(C)c1nc(CN(C)C(=O)N[C@H](C(=O)N[C@@H](Cc2ccccc2)C[C@H](O)[C@H](Cc2ccccc2)NC(=O)OCc2cncs2)C(C)C)cs1 [Ritonavir]	-1.84
CN(C)CCc1c[nH]c2ccc(Cn3cncn3)cc12 [Rizatriptan Benzoate (Maxalt)]	14.3
C=CC[N+]1([C@H]2C[C@H]3[C@@H]4CC[C@H]5C[C@H](O)[C@@H](N6CCOCC6)C[C@]5(C)[C@H]4CC[C@]3(C)[C@H]2OC(C)=O)CCCC1 [Rocuronium bromide]	-0.727
COc1cc2c(cc1OC)[C@@H]1Cc3ccc(OC)c(OC)c3CN1CC2 [Rotundine]	-0.337
NC(=O)c1cn(Cc2c(F)cccc2F)nn1 [Rufinamide (Banzel)]	-3.11
O=c1c2ccccc2nc2n1CCc1c-2[nH]c2ccccc12 [Rutaecarpine (Rutecarpine)]	5.35
C[C@@H]1O[C@@H](OC[C@H]2O[C@@H](Oc3c(-c4ccc(O)c(O)c4)oc4cc(O)cc(O)c4c3=O)[C@H](O)[C@@H](O)[C@@H]2O)[C@H](O)[C@H](O)[C@H]1O [Rutin (Rutoside)]	-3.76
COc1ccc([C@H]2CNC(=O)C2)cc1OC1CCCC1 [S-(+)-Rolipram]	-1.23
CC(C)(C)NCC(O)c1ccc(O)c(CO)c1 (stereo not shown) [Salbutamol sulfate (Albuterol)]	-7.52
OCc1ccccc1O[C@@H]1O[C@H](CO)[C@@H](O)[C@H](O)[C@H]1O [Salicin (Salicoside, Salicine)]	-2.7
OC[C@H]1O[C@@H](OCCc2ccc(O)cc2)[C@H](O)[C@@H](O)[C@@H]1O [Salidroside (Rhodioloside)]	11.2
C=C[C@](C)(O)CC[C@@H]1[C@@]2(C)CCCC(C)(C)[C@@H]2CC[C@@]1(C)O [Sclareol]	23.8
CC1(C)CCC[C@]2(C)[C@H]3CC(=O)O[C@]3(C)CC[C@@H]12 [Sclareolide (Norambreinolide)]	28.8

Compound	inhibition at 10 µM [%]
CN1[C@@H]2CC(OC(=O)[C@H](CO)c3ccccc3)C[C@H]1[C@@H]1O[C@@H]12 (stereo partly shown) [Scopolamine hydrobromide]	-0.0258
c1cc2c(cc1[C@H]1OC[C@H]3[C@@H]1CO[C@@H]3c1ccc3c(c1)OCO3)OCO2 [Sesamin (Fagarol)]	15.7
O=C(O)C1=C[C@@H](O)[C@@H](O)[C@H](O)C1 [Shikimic acid (Shikimate)]	0.278
CCCc1nn(C)c2c(=O)[nH]c(-c3cc(S(=O)(=O)N4CCN(C)CC4)ccc3OCC)nc12 [Sildenafil citrate]	4.4
COc1cc([C@H]2Oc3cc([C@H]4Oc5cc(O)cc(O)c5C(=O)[C@@H]4O)ccc3O[C@@H]2CO)ccc1O [Silibinin (Silybin)]	8.03
COc1cc([C@H]2Oc3ccc([C@H]4Oc5cc(O)cc(O)c5C(=O)[C@@H]4O)cc3O[C@@H]2CO)ccc1O [Silymarin (Silybin B)]	10
CCC(C)(C)C(=O)O[C@H]1C[C@@H](C)C=C2C=C[C@H](C)[C@H](CC[C@@H]3C[C@@H](O)CC(=O)O3)[C@H]21 [Simvastatin (Zocor)]	2.21
O=C(O)C(O)Cc1ccc(O)c(O)c1 (stereo not shown) [Sodium Danshensu]	6.44
CCCC(=O)O [Sodium butyrate]	0.412
O=C1C=CC[C@@H]2[C@H]3CCCN4CCC[C@@H](CN12)[C@@H]34 [Sophocarpine]	0.911
CNC(=O)c1cc(Oc2ccc(NC(=O)Nc3ccc(Cl)c(C(F)(F)F)c3)cc2)ccn1 [Sorafenib (Nexavar)]	-5.2
OC[C@@H](O)[C@@H](O)[C@H](O)[C@@H](O)CO [Sorbitol (Glucitol)]	3.24
CC(C)NCC(O)c1ccc(NS(C)(=O)=O)cc1 (stereo not shown) [Sotalol (Betapace)]	-6.66
CN[C@@H]1[C@H](O)[C@H](NC)[C@H]2O[C@@]3(O)C(=O)C[C@@H](C)O[C@H]3O[C@@H]2[C@H]1O [Spectinomycin hydrochloride]	-1.03
Cc1cn([C@H]2C=C[C@@H](CO)O2)c(=O)[nH]c1=O [Stavudine]	6.33
CC[C@H](/C=C/[C@@H](C)[C@H]1CC[C@H]2[C@@H]3CC=C4C[C@@H](O)CC[C@]4(C)[C@H]3CC[C@]12C)C(C)C [Stigmasterol (Stigmasterin)]	4.26
Nc1ccc(S(=O)(=O)Nc2ncccn2)cc1 [Sulfadiazine]	17.4
COc1cnc(NS(=O)(=O)c2ccc(N)cc2)nc1 [Sulfameter (Bayrena)]	28.2
Cc1cc(NS(=O)(=O)c2ccc(N)cc2)no1 [Sulfamethoxazole]	-1.59
Nc1ccc(S(N)(=O)=O)cc1 [Sulfanilamide]	17.7
Cc1noc(NS(=O)(=O)c2ccc(N)cc2)c1C [Sulfisoxazole]	-0.221
CC1=C(CC(=O)O)c2cc(F)ccc2/C1=C\c1ccc([S+](C)[O-])cc1 (stereo not shown) [Sulindac (Clinoril)]	-5.67
CNS(=O)(=O)Cc1ccc2[nH]cc(CCN(C)C)c2c1 [Sumatriptan succinate]	8.05

Compound	inhibition at 10 µM [%]
CCN(CC)CCNC(=O)c1c(C)[nH]c(/C=C2\C(=O)Nc3ccc(F)cc32)c1C [Sunitinib Malate (Sutent)]	1.4
CNCC(O)c1ccc(O)cc1 (stereo not shown) [Synephrine (Oxedrine)]	3.83
CN1CC(=O)N2[C@H](c3ccc4c(c3)OCO4)c3[nH]c4ccccc4c3C[C@@H]2C1=O [Tadalafil (Cialis)]	0.202
CC/C(=C(\c1ccccc1)c1ccc(OCCN(C)C)cc1)c1ccccc1 [Tamoxifen Citrate (Nolvadex)]	-8.21
COc1ccc(-c2cc(=O)c3c(OC)c(OC)c(OC)c(OC)c3o2)cc1 [Tangeretin (Tangeritin)]	-0.746
Cc1coc2c1C(=O)C(=O)c1c-2ccc2c1CCCC2(C)C [Tanshinone IIA (Tanshinone B)]	3.42
Cc1coc2c1C(=O)C(=O)c1c-2ccc2c(C)cccc12 [Tanshinone I]	-5.27
NCCS(=O)(=O)O [Taurine]	8.63
O=C1c2c(O)cc(O)cc2O[C@H](c2ccc(O)c(O)c2)[C@H]1O [Taxifolin (Dihydroquercetin)]	12.2
CCOC(=O)c1ccc(C#Cc2ccc3c(c2)C(C)(C)CCS3)nc1 [Tazarotene (Avage)]	38.1
Cc1cn([C@@H]2C[C@@H](O)[C@H](CO)O2)c(=O)[nH]c1=O [Telbivudine (Sebivo, Tyzeka)]	23.8
CCCc1nc2c(C)cc(-c3nc4ccccc4n3C)cc2n1Cc1ccc(-c2ccccc2C(=O)O)cc1 [Telmisartan (Micardis)]	0.71
CO[C@H]1C[C@@H]2CC[C@@H](C)[C@@](O)(O2)C(=O)C(=O)N2CCCC[C@H]2C(=O)O[C@H]([C@H](C)C[C@@H]2CC[C@@H](OC(=O)C(C)(CO)CO)[C@H](OC)C2)CC(=O)[C@H](C)/C=C(\C)[C@@H](O)[C@@H](OC)C(=O)[C@H](C)C[C@H](C)/C=C/C=C/C=C/1C [Temsirolimus (Torisel)]	1.56
COc1cc([C@@H]2c3cc4c(cc3[C@@H](O[C@@H]3O[C@@H]5CO[C@@H](c6cccs6)O[C@H]5[C@H](O)[C@H]3O)[C@H]3COC(=O)[C@H]23)OCO4)cc(OC)c1O [Teniposide (Vumon)]	-0.429
C[C@H](Cn1cnc2c(N)ncnc21)OCP(=O)(O)O [Tenofovir (Viread)]	8.23
CCCCNc1ccc(C(=O)OCCN(C)C)cc1 [Tetracaine hydrochloride (Pontocaine)]	-0.577
COc1ccc2cc1Oc1ccc(cc1)C[C@H]1c3cc(c(OC)cc3CCN1C)Oc1c(OC)c(OC)cc3c1[C@H](C2)N(C)CC3 [Tetrandrine (Fanchinine)]	9.82
O=C1CCC(N2C(=O)c3ccccc3C2=O)C(=O)N1 (stereo not shown) [Thalidomide]	-3.3
Cn1cnc2c1c(=O)[nH]c(=O)n2C [Theobromine (3,7-Dimethylxanthine)]	0.993
Nc1nc2[nH]cnc2c(=S)[nH]1 [Thioguanine]	13
O=c1oc2cc(O)ccc2s1 [Tioxolone]	-0.329
